Results published in patent publication US9427428B2, “Benzimidazole-imidazole derivatives” (Janssen Sciences Ireland UC, priority 2009, dated 2016).

What was measured:
[1] = system: HCV genotype 1b replicon NS5A R30H; test: Transient HCV 1b replicon, NS5A mutant R30H; type: cell-based; conditions: Hepatitis C virus, read-out: EC50 R30H
Source text: (§1) In a transient set-up, a Huh-7 lunet hepatoma cell line was transiently transfected with an autonomously replicating RNA encoding a bi-cistronic expression construct. This construct comprises a firefly luciferase reporter gene preceding the NS3-NS5B subgenomic region of HCV (genotype 1a H77 or 1b Con1). Translation of the HCV subgenomic region is mediated by an internal ribosome entry site of encephalomyocarditis virus. The construct is furthermore flanked by 5′ and 3′ untranslated regions of HCV (genotype 1a H77 or 1b Con 1, respectively), which allow for replication of the RNA.
(§2) In addition to the wild-type constructs, site-directed mutations were introduced into the transient HCV genotype 1b replicon in the gene encoding for the non-structural protein 5A (NS5A). More precisely, amino acid residues 28, 30, 31 and 93 in NS5A were independently altered.
(§3) Cells were plated in 384 well plates in the presence of test and control compounds, which were added in various concentrations. Following an incubation of two days, replication of the HCV subgenomic replicon RNA was measured by assaying luciferase activity (using standard luciferase assay substrates and reagents and a Perkin Elmer ViewLux™ ultraHTS microplate imager). HCV subgenomic replicon containing cells in the control cultures have high luciferase expression in the absence of any inhibitor. The inhibitory activity of the compound was monitored, enabling a dose-response curve for each test compound. EC50 values were then calculated, which represent the amount of compound required to decrease the level of detected luciferase activity by 50%, or more specifically, to reduce the ability of the genetically linked HCV subgenomic RNA to replicate.

[2] = system: HCV genotype 1b replicon NS5A Y93H; test: Transient HCV 1b replicon, NS5A mutant Y93H; type: cell-based; conditions: Hepatitis C virus, read-out: EC50 Y93H
Source text: as §1, §2, §3

[3] = system: HCV genotype 1b replicon NS5A L31F; test: Transient HCV 1b replicon, NS5A mutant L31F; type: cell-based; conditions: Hepatitis C virus, read-out: EC50 L31F
Source text: as §1, §2, §3

[4] = system: HCV genotype 1b Con1 replicon (Huh-7 lunet cells); test: HCV replicon assay, transient transfection, genotype 1b; type: cell-based; conditions: Hepatitis C virus, 48 h, genotype 1b Con1, two days incubation, luciferase
Source text: as §1, §3
(§4) Where a compound of formula (I) was tested more than once in the transient replicon assay, the average of all test results is given in Table 3.

[5] = system: HCV genotype 1b replicon NS5A L28T; test: Transient HCV 1b replicon, NS5A mutant L28T; type: cell-based; conditions: Hepatitis C virus, read-out: EC50 L28T
Source text: as §1, §2, §3

[6] = system: HCV genotype 1a H77 replicon (Huh-7 lunet cells); test: HCV replicon assay, transient transfection, genotype 1a; type: cell-based; conditions: Hepatitis C virus, 48 h, genotype 1a H77, two days incubation, luciferase
Source text: as §1, §3, §4

[7] = system: HCV type 1b replicon (Huh-7 luc/neo cells); test: HCV replicon assay, stable transfection (Huh-Luc, luciferase); type: cell-based; conditions: Hepatitis C virus, Huh-7, 72 h, three days incubation, average of all tests
Source text: The compounds of formula (I) were examined for inhibitory activity in the HCV replicon. This cellular assay is based on a bicistronic expression construct, as described by Lohmann et al. (Science (1999) 285: 110-113; Journal of Virology (2003) 77: 3007-3019) with modifications described by Krieger et al. (Journal of Virology (2001) 75: 4614-4624), and Lohmann et al. (Journal of Virology (2003) 77: 3007-3019) for genotype 1b and by Yi et al. (Journal of Virology (2004) 78: 7904-7915) for genotype 1a, in a multi-target screening strategy.
The method was as follows. The assay utilized the stably transfected cell line Huh-7 luc/neo (hereafter referred to as Huh-Luc). This cell line harbors an RNA encoding a bicistronic expression construct comprising the wild type NS3-NS5B regions of HCV type 1b translated from an Internal Ribosome Entry Site (IRES) from encephalomyocarditis virus (EMCV), preceded by a reporter portion (FfL-luciferase), and a selectable marker portion (neoR, neomycine phosphotransferase). The construct is flanked by 5′ and 3′ NTRs (non-translated regions) from HCV type 1b. Continued culture of the replicon cells in the presence of G418 (neoR) is dependent on the replication of the HCV RNA. The stably transfected replicon cells that replicate HCV RNA autonomously and to high levels, encoding inter alia luciferase, were used for screening the antiviral compounds.
The replicon cells were plated in 384 well plates in the presence of the test and control compounds which were added in various concentrations. Following an incubation of three days, HCV replication was measured by assaying luciferase activity (using standard luciferase assay substrates and reagents and a Perkin Elmer ViewLux™ ultraHTS microplate imager). Replicon cells in the control cultures have high luciferase expression in the absence of any inhibitor. The inhibitory activity of the compound was monitored on the Huh-Luc cells, enabling a dose-response curve for each test compound. EC50 values were then calculated, which represent the amount of compound required to decrease the level of detected luciferase activity by 50%, or more specifically, to reduce the ability of the genetically linked HCV replicon RNA to replicate.
Where a compound of formula (I) was tested more than once in the replicon assay, the average of all test results is given in this Table 2.

[8] = system: HCV genotype 1b replicon NS5A Y93C; test: Transient HCV 1b replicon, NS5A mutant Y93C; type: cell-based; conditions: Hepatitis C virus, read-out: EC50 Y93C
Source text: as §1, §2, §3

[9] = Counterscreen Huh7-CMV-Luc; type: cell-based; conditions: human
Source text: (§5) Counterscreen cell lines included a Huh-7 hepatoma cell line containing a human cytomegalovirus major immediate-early promoter-Luc construct (Huh7-CMV-Luc) and an MT4 T-cell line containing a long terminal repeat-Luc reporter (MT4-LTR-Luc).

[10] = Pharmacokinetic analysis after single oral administration, liver concentration; type: in vivo; conditions: male Sprague-Dawley rats, 10 mg/kg oral, solution in PEG400
Protocol: Compounds were dosed orally as a solution in PEG400 to male Sprague-Dawley rats at a dose level of 10 mg/kg. At serial time points, after dosing, the animals were sacrificed and liver samples collected. All samples were analyzed using a qualified research LC-MS/MS method to determine the concentration of the tested compounds in liver. Non-compartmental analysis using the lin/log trapezoidal rule was performed using WinNonlin™ Professional (Version 5.2.1).

[11] = Counterscreen MT4-LTR-Luc; type: cell-based; conditions: human
Source text: as §5

[12] = system: HCV genotype 1b replicon NS5A L31M; test: Transient HCV 1b replicon, NS5A mutant L31M; type: cell-based; conditions: Hepatitis C virus, read-out: EC50 L31M
Source text: as §1, §2, §3

[13] = system: HCV genotype 1b replicon NS5A L31V; test: Transient HCV 1b replicon, NS5A mutant L31V; type: cell-based; conditions: Hepatitis C virus, read-out: EC50 L31V
Source text: as §1, §2, §3

Structure (SMILES) | EC50 [1] [nM] | EC50 [2] [nM] | EC50 [3] [nM] | EC50 [4] [nM] | EC50 [5] [nM] | EC50 [6] [nM] | EC50 [7] [nM] | EC50 [8] [nM] | CC50 [9] [nM] | Liver AUC [10] [ng·h/g] | CC50 [11] [nM] | EC50 [12] [nM] | EC50 [13] [nM]
COC(=O)N[C@H](C(=O)N1CCC[C@H]1c1ncc(-c2ccc3cc(-c4ccc5nc([C@@H]6CCCN6C(=O)[C@@H](NC(=O)OC)C(C)C)[nH]c5c4)ccc3c2)[nH]1)C(C)C [Compound 3] | 0.072 | 0.47 | 0.032 | 0.008 | 0.229 | 0.051 | 0.007 | 0.012 | 7640 | 23157 | 5820 | 0.184 | 0.504
COC(=O)N[C@H](C(=O)N1CCC[C@H]1c1ncc(-c2ccc3cc(-c4ccc5nc([C@@H]6CCCN6C(=O)[C@@H](NC(=O)OC)[C@@H](C)OC)[nH]c5c4)ccc3c2)[nH]1)[C@@H](C)OC [Compound 4] | 0.056 | 0.034 | 0.02 | 0.016 | 0.052 | 0.033 | 0.012 | 0.013 | > 984 | 1539 | > 984 | 0.052 | 0.048
CC[C@H](C)[C@H](NC(=O)OC)C(=O)N1CCC[C@H]1c1ncc(-c2ccc3cc(-c4ccc5nc([C@@H]6CCCN6C(=O)[C@@H](NC(=O)OC)[C@@H](C)CC)[nH]c5c4)ccc3c2)[nH]1 [Compound 8] | 0.116 | 0.587 | 0.016 | 0.005 | 0.206 | 0.204 | 0.003 | < 0.013 | > 984 | 50655 | > 984 | 0.258 | 0.311
COC(=O)N[C@H](C(=O)N1CCC[C@H]1c1ncc(-c2ccc3cc(-c4ccc5nc([C@@H]6CCCN6C(=O)[C@@H](NC(=O)OC)[C@@H](C)OC)[nH]c5c4)ccc3c2)[nH]1)C(C)C [Compound 9] | 0.045 | 0.042 | < 0.017 | 0.007 | 0.081 | 0.03 | 0.007 | < 0.013 | > 984 | 6202 | > 984 | 0.072 | 0.086
COC(=O)N[C@H](C(=O)N1CCC[C@H]1c1nc2ccc(-c3ccc4cc(-c5cnc([C@@H]6CCCN6C(=O)[C@@H](NC(=O)OC)[C@@H](C)OC)[nH]5)ccc4c3)cc2[nH]1)C(C)C [Compound 11] | 0.05 | 0.167 | 0.021 | 0.012 | 0.117 | 0.048 | 0.006 | < 0.013 | > 984 | 7928 | > 984 | 0.087 | 0.141
CC[C@H](C)[C@H](NC(=O)OC)C(=O)N1CCC[C@H]1c1nc2ccc(-c3ccc4cc(-c5cnc([C@@H]6CCCN6C(=O)[C@@H](NC(=O)OC)C(C)C)[nH]5)ccc4c3)cc2[nH]1 [Compound 13] | 0.027 | 0.215 | < 0.013 | 0.002 | 0.109 | 0.051 | 0.002 | < 0.013 | > 984 | 51330 | > 984 | 0.053 | 0.141
CC[C@H](C)[C@H](NC(=O)OC)C(=O)N1CCC[C@H]1c1ncc(-c2ccc3cc(-c4ccc5[nH]c([C@@H]6CCCN6C(=O)[C@@H](NC(=O)OC)C(C)C)nc5c4)ccc3c2)[nH]1 [Compound 16] | 0.07 | 0.343 | 0.017 | 0.003 | 0.151 | 0.098 | 0.003 | < 0.013 | > 984 | 12630 | > 984 | 0.093 | 0.411
CC[C@H](C)[C@H](NC(=O)OC)C(=O)N1CCC[C@H]1c1ncc(-c2ccc3cc(-c4ccc5[nH]c([C@@H]6CCCN6C(=O)[C@@H](NC(=O)OC)[C@@H](C)OC)nc5c4)ccc3c2)[nH]1 [Compound 17] | 0.036 | 0.034 | 0.005 | 0.005 | 0.037 | 0.049 | 0.005 | 0.003 | 11100 | 4213 | 9300 | 0.025 | 0.037
